Laboratory results as given in patent publication US20040214803A1, “Use of vitamin d3 analogue for the treatment of autoimmune diabetes” (priority 2001, published 2004).

Tests used:
CD4+ cells = test: Proliferation and IFN-γ secretion of CD4+ cells following TCR ligation; assay type: in vivo, mouse
Description: Single cell suspensions from pancreatic lymph nodes or spleen were incubated with anti-CD4 mab-coated Microbeads (Miltenyi Biotec) and applied onto Mini-MACS columns (Miltenyi Biotec). Purified CD4^+ cells (6×10^5/well) were cultured for 48 h in round-bottom 96-well plates (Costar) pre-coated with 3 μg/ml purified anti-TCR mAb (ATCC HB 218; American Type Culture Collection, Manassas, Va.) with or without 100 U/ml IL-2 and/or 10 μg/ml anti-CD28 mAb. Cultures were performed in synthetic HL-1 medium (Ventrex Laboratories, Portland, Me.) supplemented with 2 mM L-glutamine and 50 μg/ml gentamicin (Sigma). To measure cell proliferation, cultures were pulsed 8 h before harvesting with 1 μCi [^3H]TdR ([…]; Radiochemical Center, Amersham, U.K.). Incorporation of [^3H]TdR was measured by liquid scintillation spectrometry. Alternatively, splenic or pancreatic lymph node CD4^+CD25^+ and CD4^+CD25^− cells were sorted with MultiSort Kit (Miltenyi Biotec, Auburn, Calif.).
(§1) Cytokines were quantified by two-sites ELISA. IFN-γ was determined using paired mAb from PharMingen (San Diego, Calif.). For capture, the mAb was AN-18.17.24. Samples were titrated and incubated overnight at 4° C. To detect bound IFN-γ plates were then incubated with biotinylated XMG1.2 mAb. […] The plates were washed again and incubated with the developing substrate p-nitrophenylphosphate disodium (Sigma) in diethanolamine buffer (pH 9.6; 100 μl/well). The reaction was stopped by adding 50 μl/well NaOH 3N, and absorbance was read at 405 nm. ELISA for IL-12p75 was performed as described (Gately, M. K., et al., Current Protocols Immunol. 1995, 3, 15:6.16.11-16.16.15). Cytokines were quantified from two to three titration points using standard curves generated by purified recombinant mouse cytokines and results expressed as cytokine concentration in ng or pg/ml. Detection limits were 15 pg/ml for both cytokines.
FIG. 5. (page 5/9) Proliferation and IFN-γ secretion following TCR ligation. Splenic and pancreatic lymph node CD4^+ cells from untreated 8 week-old (□) or 20 week-old NOD mice treated 5×/week from 8 to 16 weeks of age with vehicle (□) or with 0.03 μg/KgCompound A (▪) were positively selected and stimulated (6×10^5 cells/well) with plate-bound anti-TCR mAb (10 μg/ml) in the presence of 100 U/ml IL-2 and/or 5 μg/ml anti-CD28 mAb. A. Cells were pulsed with [^3H]-thymidine during the last 8 hrs of a 48 h culture. Data are presented as mean ±SE of thymidine incorporation (Δ cpm) from triplicate cultures, background values were 790±100 cpm. B. After 48 h of culture, IFN-γ secretion was quantified by ELISA. Results, presented as mean ±SE of triplicate cultures, are from one representative experiment out of four performed.

aortic allografts = test: Aortic allograft histology: inflammatory cell infiltrate; assay type: in vivo, mouse; settings: 0.03 μg/kg p.o., 60 days after transplantation
Description: Histology: Segments of aorta grafts were snap-frozen in Tissue Tek (Miles Laboratories, Elkhart, Ind.), and stored at −80° C. Frozen sections, 5 μm thick, were stained with hematoxylin and eosin, or with biotinylated mAbs against CD4, CD8, B220, CD11b or CD11c (all purchased from PharMingen, San Diego, Calif.), followed by streptavidin-peroxidase conjugate. 3-amino-9-ethylcarbazole (DAKO, Carpenteria, Calif.) was used as chromogen, and hematoxylin as a counterstain. The effect of Compound A in preventing chronic rejection was evaluated using the aortic graft model in the mouse. Graft combinations were syngeneic or allogeneic. In allogeneic combinations, recipient mice were treated orally with vehicle alone or containing Compound A (0.03 μg/kg) fives times per week, from day 0 to day 30 relative to the time of grafting. Aortic grafts were analyzed 60 days after transplantation.

[1] = tested on: vascularized heart allograft; test: Vascularized heart allograft survival, C57BL/6 into BALB/c recipients; assay type: in vivo, mouse
Excerpt: Fully vascularized hearts were grafted into the abdomen of recipient mice as described (Corry, R. J., H. J. Winn, and P. S. Russell. Primarily vascularized allografts of hearts in mice. The role of H-2D, H-2K, and non-H-2 antigens in rejection. Transplantation. 1973, 16:343). Graft survival was monitored by palpation and rejection was confirmed by direct graft inspection.

IFN-γ = test: LPS-induced IFN-γ production in vivo (serum ELISA); design: species or system mouse; settings: 0.03 μg/Kg per os 72, 48, 24, 1 h before LPS; serum 3 h post LPS
Description: Lymphokine production was induced in 8 week-old female NOD mice by i.p. injection of 400 μg/mouse Salmonella abortus equi LPS (Sigma). Compound A was administered 72, 48, 24, and 1 h prior to LPS. Blood samples were collected 3 h post LPS injection and serum cytokines measured by ELISA.
as §1, with “cytokines. […]” for “cytokines.”
FIG. 3. […] IFN-γ, IL-12p75 and serum calcium levels were quantified 3 h post LPS injection. […] The P values were calculated by Mann-Whitney U test (* indicates P<0.05 vs. vehicle-treated NOD mice).

[2] = pancreatic lymph node CD4+ cells
[3] = pancreatic lymph node CD4+ cells from 20 week-old mice

C[C@H](C/C=C\C(O)(C(F)(F)F)C(F)(F)F)C1=CC[C@H]2/C(=C/C=C3C[C@@H](O)C[C@H](O)C3)CCC[C@]12C [Compound A, 1,25-dihydroxy-16,23Z-diene-26,27-hexafluoro-19-nor vitamin D3]
IFN-γ secretion after addition of IL-2 and/or anti-CD28 mAb (CD4+ cells; [2]): restored | proliferation after addition of IL-2, alone or together with anti-CD28 mAb (CD4+ cells; [2]): not restored | proliferation to insolubilized anti-TCR mAb vs age-matched controls (CD4+ cells; [3]): four times less | proliferation to insolubilized anti-TCR mAb vs cells from 8 week-old mice (CD4+ cells; [3]): 10 times less | CD4, CD8 and B cells in the grafts (aortic allografts): complete absence | number of macrophages and dendritic cells in the grafts (aortic allografts; vs vehicle): profoundly reduced number | Graft survival (days) Mean ([1]; 0.01 μg/kg po (d-1, 0, +1) then 0.003 μg/kg po (d+2 until d+30)): 12.00 days | Graft survival (days) Mean ([1]; 0.1 μg/kg po (d-1, 0, +1) then 0.03 μg/kg (d+2 until d 15)): 38.20 days | LPS-induced IFN-γ production (IFN-γ): inhibited significantly
